The results in this text go back to PubChem BioAssay (NCI).

Test systems include A498 renal; A549 NSCLC; LOX IMVI melanoma; NCI-H23 lung; PC-3 prostate; SF-268 CNS; SK-OV-3 ovarian; SN12C renal; SW-620 colon; TK-10 renal.
What all share (test): growth of human tumour cells (NCI), 48 h

Several values for one entry are separate records, joined by “and”; a condition that tells them apart may be missing. Identical values can stand only once.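 Interpolation was linear, between the two tested concentrations surrounding the appropriate level; five concentrations were tested over 48 hours in 96-well plates. GI50 = concentration required for 50% inhibition of growth. TGI denotes the concentration required for complete inhibition of growth.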

Regarding `c1ccc2[nH]c(-c3cscn3)nc2c1`, the TGI with A498 renal, in the experiment on A549 NSCLC, with LOX IMVI melanoma, in the experiment with NCI-H23 lung, with PC-3 prostate and in the experiment with SF-268 CNS was > 100 µM each time. Also, the TGI with SK-OV-3 ovarian, in the experiment on SN12C renal, in the experiment with SW-620 colon and in the experiment on TK-10 renal was > 100 µM throughout.

`C=C1CCC2C(C)(CO)C(O)CCC2(C)C1C/C=C1\C(=O)OCC1O` (stereo not given): the TGI was 93.1 µM in the experiment with A498 renal; 80.9 µM in the experiment on A549 NSCLC; 30.4 µM in the experiment with LOX IMVI melanoma; 49.8 µM in the experiment with NCI-H23 lung; 71.6 µM in the experiment with PC-3 prostate; > 100 µM with SF-268 CNS. In addition, the TGI in the experiment with SK-OV-3 ovarian is 66.7 µM; in the experiment with SN12C renal, 35.8 µM; in the experiment with SW-620 colon it was 24 µM; in the experiment with TK-10 renal, > 100 µM.

For the compound `COc1cc(OC)c(OC)cc1/C=C\c1ccnc2ccccc12`, the TGI in the experiment on A498 renal was 5.64 µM; with A549 NSCLC, > 72.6 µM; in the experiment on LOX IMVI melanoma it was > 42.5 µM; with NCI-H23 lung, 23.5 µM; in the experiment on PC-3 prostate, > 100 µM; with SF-268 CNS, > 86.2 µM. The TGI in the experiment on SK-OV-3 ovarian was 9.68 µM; with SN12C renal, > 100 µM; in the experiment with SW-620 colon, > 63.1 µM; with TK-10 renal it was 31.4 µM.

Consider `CSc1ccc2c(c1)N(CCCN(C)C)c1ccccc1S2`, for which the TGI in the experiment with A498 renal stood at 24.6 µM; with A549 NSCLC it was 30.2 µM; with LOX IMVI melanoma, 32.4 µM; in the experiment with NCI-H23 lung it was 31.5 µM; in the experiment with PC-3 prostate it was 23.8 µM; in the experiment on SF-268 CNS it was 27.2 µM. The TGI stood at 29.4 µM in the experiment on SK-OV-3 ovarian, 28.5 µM with SN12C renal, 41.8 µM in the experiment on SW-620 colon and 28.3 µM with TK-10 renal.

`COc1cc(C(=O)Nc2ccc(-c3nc4ccccc4[nH]3)cc2)cc(OC)c1OC`: the GI50 in the experiment on A498 renal was 7.07 µM; with A549 NSCLC it was 11.2 µM; in the experiment on LOX IMVI melanoma, 11.2 µM; in the experiment on NCI-H23 lung, 11.9 µM; in the experiment with PC-3 prostate, 13.6 µM; in the experiment on SF-268 CNS, 14.2 µM. For the same compound, the GI50 is 16.5 µM in the experiment on SK-OV-3 ovarian, 10.3 µM in the experiment on SN12C renal, 16.9 µM in the experiment on SW-620 colon and 15.1 µM in the experiment with TK-10 renal. The TGI in the experiment on A498 renal is 25.4 µM; with A549 NSCLC, 27.8 µM; in the experiment on LOX IMVI melanoma, 30.9 µM; in the experiment with NCI-H23 lung it was 34.6 µM; in the experiment with PC-3 prostate, 34 µM; in the experiment with SF-268 CNS, 37.4 µM. In addition, the TGI in the experiment on SK-OV-3 ovarian came to 30.6 µM; in the experiment with SN12C renal, 25.5 µM; in the experiment on SW-620 colon, 42.8 µM; with TK-10 renal it was 29.3 µM.

With `CCCC/C=C1/CCC(CN(C)C)C1=O` (stereo not given), the TGI came out at 15.9 µM with A498 renal; 16.5 µM in the experiment on A549 NSCLC; 2.91 µM in the experiment with LOX IMVI melanoma; 8.18 µM with NCI-H23 lung; 27.2 µM in the experiment on PC-3 prostate; 5.91 µM in the experiment on SF-268 CNS. The TGI in the experiment on SK-OV-3 ovarian amounted to 25.1 µM; with SN12C renal, 3.63 µM; in the experiment with SW-620 colon it was 2.88 µM; with TK-10 renal, 2.51 µM.

Consider `Cc1nc(Nc2ccc(Cl)c(Cl)c2)sc1C(/C=C/c1ccc2c(c1)OCO2)=N/Nc1ccc([N+](=O)[O-])cc1[N+](=O)[O-]`, for which the TGI with A498 renal, in the experiment with A549 NSCLC, in the experiment on LOX IMVI melanoma, in the experiment with NCI-H23 lung, in the experiment with PC-3 prostate and in the experiment on SF-268 CNS was > 100 µM each time. Moreover, the TGI in the experiment with SK-OV-3 ovarian was > 100 µM; in the experiment with SN12C renal, > 100 µM; with SW-620 colon, > 100 µM; with TK-10 renal, > 94.4 µM.

As for `CC(C)(C)c1cnc(CSc2cnc(NC(=O)C3CCNCC3)s2)o1`, the GI50 with A498 renal was 0.223 µM and 0.23 µM; in the experiment on A549 NSCLC, 0.256 µM and 0.23 µM; in the experiment with LOX IMVI melanoma, 0.218 µM and 0.131 µM; with NCI-H23 lung it was 0.251 µM and 0.211 µM; in the experiment on PC-3 prostate it was 0.21 µM and 0.19 µM; in the experiment on SF-268 CNS, 0.185 µM and 0.281 µM. In addition, the GI50 in the experiment with SK-OV-3 ovarian is 0.475 µM and 0.569 µM; with SN12C renal, 0.262 µM and 0.215 µM; with SW-620 colon, 0.256 µM and 0.274 µM; in the experiment with TK-10 renal, 0.62 µM and 0.794 µM. Further, the TGI in the experiment with A498 renal is 0.598 µM and 0.714 µM; in the experiment with A549 NSCLC, > 10 µM; in the experiment with LOX IMVI melanoma, 14.5 µM and > 10 µM; in the experiment on NCI-H23 lung it was 0.767 µM and > 2.56 µM; with PC-3 prostate, 2.81 µM and > 9 µM; in the experiment with SF-268 CNS, 2.48 µM and > 3.39 µM. In addition, the TGI in the experiment on SK-OV-3 ovarian was > 100 µM; with SN12C renal, > 63.3 µM; in the experiment with SW-620 colon it was > 100 µM; in the experiment with TK-10 renal, 5.23 µM and > 10 µM.

For the compound `Fc1nc(Sc2ncnc3nc[nH]c23)nc(-c2c3ccccc3c3sc4ccccc4n23)n1`, the TGI with A498 renal, in the experiment on A549 NSCLC, in the experiment on LOX IMVI melanoma, with NCI-H23 lung, in the experiment with PC-3 prostate and in the experiment with SF-268 CNS was > 100 µM each time. Also, the TGI in the experiment with SK-OV-3 ovarian, with SN12C renal, in the experiment with SW-620 colon and in the experiment on TK-10 renal was > 100 µM each time.

Turning to `CNc1ccc(CSc2ccc(C)cc2)cc1`, the GI50 in the experiment with A498 renal was 0.178 µM; in the experiment on A549 NSCLC it was 5.34 µM; in the experiment on LOX IMVI melanoma, 14.5 µM; in the experiment with NCI-H23 lung it was 25 µM; in the experiment on PC-3 prostate, 13.2 µM; with SF-268 CNS it was 14.7 µM. The GI50 with SK-OV-3 ovarian is > 100 µM; in the experiment on SN12C renal, 3.62 µM; with SW-620 colon, 18.6 µM; with TK-10 renal, 40.3 µM. Besides, the TGI with A498 renal, in the experiment with A549 NSCLC, in the experiment with LOX IMVI melanoma, in the experiment on NCI-H23 lung, in the experiment with PC-3 prostate and with SF-268 CNS was > 100 µM each time. For the same compound, the TGI was > 100 µM in the experiment on SK-OV-3 ovarian, 53.6 µM with SN12C renal, > 100 µM in the experiment with SW-620 colon and > 100 µM in the experiment on TK-10 renal.

For the compound `CCCCCCC1CCCCN1C(c1ccccc1)C(O)c1ccccc1` (stereo not given), the GI50 in the experiment on A498 renal was 11.1 µM; with A549 NSCLC, 7.62 µM; with LOX IMVI melanoma it was 3.04 µM; in the experiment with NCI-H23 lung, 6.33 µM; with PC-3 prostate, 6.93 µM; with SF-268 CNS it was 10.9 µM. The GI50 was 12.2 µM in the experiment with SK-OV-3 ovarian, 6.5 µM with SN12C renal, 5.35 µM in the experiment with SW-620 colon and 14.2 µM in the experiment on TK-10 renal. The TGI in the experiment with A498 renal turned out to be 23.5 µM; in the experiment on A549 NSCLC, 21.4 µM; with LOX IMVI melanoma, 12.4 µM; in the experiment with NCI-H23 lung, 20.9 µM; with PC-3 prostate, 20.6 µM; with SF-268 CNS, 23.1 µM. For the same compound, the TGI with SK-OV-3 ovarian turned out to be 25.1 µM; in the experiment with SN12C renal, 20.3 µM; in the experiment with SW-620 colon, 18.4 µM; with TK-10 renal it was 27.6 µM.
